The source of these data is US20150005277A1, “Protein Kinase Inhibitors and Uses Thereof” (Beigene, Ltd., priority 2013, published 2015).

One experiment addresses Recombinant Btk (Homo sapiens, UniProt Q06187). Nature of the experiment: Btk Kinase Assay (TR-FRET).
The target in experiment [1] is T1, phosphorylated Btk at Tyr223 in Ramos cells (Homo sapiens, UniProt Q06187).
T1 construct: determine the endogenous levels of phosphorylated Btk at Tyr223; endogenous in cells; host or cells: Ramos cells (CRL-1596, ATCC)
Description: Btk pY223 Cellular Assay (HTRF, Ramos cells). Conditions: 1 hour compound incubation, stimulated with pervanadate or Na3VO4, read-out: 1050 (nM) Btk pY223. It is filed as cell-based. The procedure: Btk pY223 cellular assay is a HTRF based assay intended to determine the endogenous levels of phosphorylated Btk at Tyr223. Phosphorylated Tyr223 is necessary for full activation of Btk.
Briefly, Ramos cells were serum starved in 0.5% FBS-containing RPMI1640 for 2 hours. Following starvation, the cells were incubated with compounds to be detected at various concentrations in a CO2 incubator for 1 hour. After incubation, cells were stimulated with 1 mM pervanadate (PV) or Na3VO4 (OV) for 20 min. Then, the cells were spinned down and lysed with 1× lysis buffer at RT for 10 min (4× lysis buffer supplied in the kit). During the incubation, 1× antibody mix was prepared by diluting anti-Btk-d2 and anti-pBtk-K in detection buffer (supplied in the kit). […] After that, 18 ul of cell lysate was transferred to the assay plate pre-loaded with antibody solution. After mixing gently and spinning briefly, the plate was sealed up and kept in dark at RT for 18 hours. The fluorescence emission was measured at two different wavelengths (665 nm and 620 nm) on a compatible HTRF reader (PHERAstar FS, BMG).

The structures appear in SMILES notation.

T1 sequence (Q06187 whole entry): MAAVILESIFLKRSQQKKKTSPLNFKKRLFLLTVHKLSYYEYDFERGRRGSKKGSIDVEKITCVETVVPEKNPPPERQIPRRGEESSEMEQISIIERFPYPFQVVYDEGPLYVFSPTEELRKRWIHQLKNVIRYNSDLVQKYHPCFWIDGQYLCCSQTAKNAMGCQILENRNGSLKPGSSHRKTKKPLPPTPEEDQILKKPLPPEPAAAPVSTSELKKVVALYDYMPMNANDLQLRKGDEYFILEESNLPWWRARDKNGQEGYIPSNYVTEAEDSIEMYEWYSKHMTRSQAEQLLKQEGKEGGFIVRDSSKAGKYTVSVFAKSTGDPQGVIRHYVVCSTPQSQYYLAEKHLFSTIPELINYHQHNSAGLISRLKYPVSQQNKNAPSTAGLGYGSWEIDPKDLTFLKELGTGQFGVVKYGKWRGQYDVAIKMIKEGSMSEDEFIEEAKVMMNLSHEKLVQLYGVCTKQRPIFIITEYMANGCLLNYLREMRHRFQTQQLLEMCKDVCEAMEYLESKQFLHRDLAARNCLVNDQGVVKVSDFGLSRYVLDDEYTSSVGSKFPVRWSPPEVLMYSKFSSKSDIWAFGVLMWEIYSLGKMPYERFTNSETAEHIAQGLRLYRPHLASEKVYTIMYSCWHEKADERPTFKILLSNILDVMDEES
Sequence of Recombinant Btk (Q06187 whole entry): as above

For `C=CS(=O)(=O)N1CCCC(n2nc(-c3ccc(Oc4ccccc4)cc3)c(C(N)=O)c2N)C1` (stereo not shown) [Compound I-8, 5-Amino-3-(4-phenoxyphenyl)-1-(1-(vinylsulfonyl)piperidin-3-yl)-1H-pyrazole-4-carboxamide], the IC50 at Recombinant Btk was found to be 0.23 nM.

Turning to `C=CC(=O)N1CCCC(c2cn(-c3ccc(Oc4ccccc4)cc3)c(C(N)=O)c2N)C1` (stereo not shown) [II-10, 4-(1-Acryloylpiperidin-3-yl)-3-amino-1-(4-phenoxyphenyl)-1H-pyrrole-2-carboxamide], the IC50 at Recombinant Btk was 2.7 nM.

With `C#CC(=O)N1CCCC(n2nc(-c3ccc(Oc4ccccc4)cc3)c(C(N)=O)c2N)C1` (stereo not shown) [Compound I-13, 5-Amino-3-(4-phenoxyphenyl)-1-(1-propioloylpiperidin-3-yl)-1H-pyrazole-4-carboxamide], the IC50 on Recombinant Btk worked out at 0.21 nM; in experiment [1], 7.5 nM. As to `C=CC(=O)N1CCc2c(c(N)c(C(N)=O)n2-c2ccc(OCc3ccccc3)cc2)C1` [II-4, 5-Acryloyl-3-amino-1-(4-(benzyloxy)phenyl)-4,5,6,7-tetrahydro-1H-pyrrolo[3,2-c]pyridine-2-carboxamide], the IC50 at Recombinant Btk was 25 nM. On the same count and under the same terms, in the case of `CN1CC=C(C(=O)N2CCCC(n3nc(-c4ccc(Oc5ccccc5)cc4)c(C(N)=O)c3N)C2)CC1` (stereo not shown) [Compound I-7, 5-Amino-1-(1-(1-methyl-1,2,3,6-tetrahydropyridine-4-carbonyl)piperidin-3-yl)-3-(4-phenoxyphenyl)-1H-pyrazole-4-carboxamide] it was 14 nM; in that of `C=CC(=O)N1CCC[C@@H](n2nc(-c3ccc(OCC4CC4)cc3)c(C(N)=O)c2N)C1` [Compound I-17, (R)-1-(1-Acryloylpiperidin-3-yl)-5-amino-3-(4-(cyclopropylmethoxy)phenyl)-1H-pyrazole-4-carboxamide], 0.92 nM. The same measure, in the same setting: the figure for `C=CC(=O)N1CCC[C@@H](n2nc(-c3ccc(OCC(C)C)cc3)c(C(N)=O)c2N)C1` [Compound I-20, (R)-1-(1-Acryloylpiperidin-3-yl)-5-amino-3-(4-isobutoxyphenyl)-1H-pyrazole-4-carboxamide] is 0.49 nM; for `N#CCC(=O)N1CCCC(n2nc(-c3ccc(Oc4ccccc4)cc3)c(C(N)=O)c2N)C1` (stereo not shown) [Compound I-9, 5-Amino-1-(1-(2-cyanoacetyl)piperidin-3-yl)-3-(4-phenoxyphenyl)-1H-pyrazole-4-carboxamide] it is 22 nM.

Turning to `C=CC(=O)N1CCc2c(c(N)c(C(N)=O)n2-c2ccc(Oc3ccccc3)cc2)C1` [II-1, 5-Acryloyl-3-amino-1-(4-phenoxyphenyl)-4,5,6,7-tetrahydro-1H-pyrrolo[3,2-c]pyridine-2-carboxamide], the IC50 at Recombinant Btk stood at 3.3 nM; in experiment [1], 16.6 nM. In the same order, the values of `C=CC(=O)Nc1ccc2c(c1)c(N)c(C(N)=O)n2-c1ccc(Oc2ccccc2)cc1` [II-7, 5-Acrylamido-3-amino-1-(4-phenoxyphenyl)-1H-indole-2-carboxamide] are 9.4 nM and 55.6 nM.

As to `N#C/C=C\CN1CCCC(n2nc(-c3ccc(Oc4ccccc4)cc3)c(C(N)=O)c2N)C1` (stereo not shown) [Compound I-12, (Z)-5-Amino-1-(1-(3-cyanoallyl)piperidin-3-yl)-3-(4-phenoxyphenyl)-1H-pyrazole-4-carboxamide], on Recombinant Btk, the IC50 came out at 18 nM. Regarding `C=CC(=O)N1Cc2c(N)c(C(N)=O)n(-c3ccc(Oc4ccccc4)cc3)c2C1` [II-5, 5-Acryloyl-3-amino-1-(4-phenoxyphenyl)-1,4,5,6-tetrahydropyrrolo[3,4-b]pyrrole-2-carboxamide], the IC50 on Recombinant Btk is 9 nM. For the molecule `NC(=O)c1c(-c2ccc(Oc3ccccc3)cc2)nn(C2CCCN(C(=O)CCl)C2)c1N` (stereo not shown) [Compound I-6, 5-Amino-1-(1-(2-chloroacetyl)piperidin-3-yl)-3-(4-phenoxyphenyl)-1H-pyrazole-4-carboxamide], the IC50 on Recombinant Btk was 0.22 nM; in experiment [1], 10.4 nM. Turning to `C=CC(=O)N1CCC[C@@H](n2nc(-c3ccc(Cl)cc3)c(C(N)=O)c2N)C1` [Compound I-14, (R)-1-(1-Acryloylpiperidin-3-yl)-5-amino-3-(4-chlorophenyl)-1H-pyrazole-4-carboxamide], the IC50 at Recombinant Btk was 0.54 nM; in experiment [1], 3.3 nM. Turning to `N#C/C=C/CN1CCCC(n2nc(-c3ccc(Oc4ccccc4)cc3)c(C(N)=O)c2N)C1` (stereo not shown) [Compound I-11, (E)-5-Amino-1-(1-(3-cyanoallyl)piperidin-3-yl)-3-(4-phenoxyphenyl)-1H-pyrazole-4-carboxamide], on Recombinant Btk, the IC50 was determined as 7.6 nM. Consider `C=CC(=O)N1CCC[C@@H](n2nc(-c3ccc(C)c(OC)c3)c(C(N)=O)c2N)C1` [Compound I-15, (R)-1-(1-Acryloylpiperidin-3-yl)-5-amino-3-(3-methoxy-4-methylphenyl)-1H-pyrazole-4-carboxamide], for which the IC50 on Recombinant Btk came to 0.24 nM; in experiment [1], 0.3 nM. On to `C=CC(=O)N1CC2(CC(n3nc(-c4ccc(Oc5ccccc5)cc4)c(C(N)=O)c3N)C2)C1` [Compound I-19, 1-(2-Acryloyl-2-azaspiro[3.3]heptan-6-yl)-5-amino-3-(4-phenoxyphenyl)-1H-pyrazole-4-carboxamide], for which the IC50 at Recombinant Btk amounted to 0.15 nM. The same measure, in the same setting: the figure for `C=CC(=O)NCCN1CCc2c(c(N)c(C(N)=O)n2-c2ccc(Oc3ccccc3)cc2)C1` [II-3, 5-(2-Acrylamidoethyl)-3-amino-1-(4-phenoxyphenyl)-4,5,6,7-tetrahydro-1H-pyrrolo[3,2-c]pyridine-2-carboxamide] is 480 nM. `C=CC(=O)N1CCC[C@@H](n2nc(-c3ccc(OC)cc3)c(C(N)=O)c2N)C1` [Compound I-16, (R)-1-(1-Acryloylpiperidin-3-yl)-5-amino-3-(4-methoxyphenyl)-1H-pyrazole-4-carboxamide]: the results for the IC50 (at Recombinant Btk; in experiment [1]) were 1.4 nM and 17.7 nM, respectively. On the same counts, the results for `CN(C)C/C=C/C(=O)N1CCCC(n2nc(-c3ccc(Oc4ccccc4)cc3)c(C(N)=O)c2N)C1` (stereo not shown) [Compound I-4, (E)-5-Amino-1-(1-(4-(dimethylamino)but-2-enoyl)piperidin-3-yl)-3-(4-phenoxyphenyl)-1H-pyrazole-4-carboxamide] are 0.56 nM and 3.6 nM.

As for `C=CC(=O)N1CCC(N2CCc3c(c(N)c(C(N)=O)n3-c3ccc(Oc4ccccc4)cc3)C2)C1` (stereo not shown) [II-2, 5-(1-Acryloylpyrrolidin-3-yl)-3-amino-1-(4-phenoxyphenyl)-4,5,6,7-tetrahydro-1H-pyrrolo[3,2-c]pyridine-2-carboxamide], at Recombinant Btk, the IC50 was determined as 3200 nM. Same read-out and setting: in the case of `CN(C)C(=O)/C=C/CN1CCCC(n2nc(-c3ccc(Oc4ccccc4)cc3)c(C(N)=O)c2N)C1` (stereo not shown) [Compound I-10, (E)-5-Amino-1-(1-(4-(dimethylamino)-4-oxobut-2-enyl)piperidin-3-yl)-3-(4-phenoxyphenyl)-1H-pyrazole-4-carboxamide] it was 18 nM. Still for that read-out and setting: in the case of `C=CC(=O)Nc1ccc2c(N)c(C(N)=O)n(-c3ccc(Oc4ccccc4)cc3)c2c1` [II-8, 6-Acrylamido-3-amino-1-(4-phenoxyphenyl)-1H-indole-2-carboxamide] it was 210 nM; in that of `C=CC(=O)N1Cc2c(N)c(C(N)=O)n(-c3ccc(Oc4ccc(C(C)(C)C)cc4)cc3)c2C1` [II-6, 5-Acryloyl-3-amino-1-(4-(4-(tert-butyl)phenoxy)phenyl)-1,4,5,6-tetrahydropyrrolo[3,4-b]pyrrole-2-carboxamide], 34 nM. As to `NC(=O)c1c(N)c(C2CCNCC2)cn1-c1ccc(Oc2ccccc2)cc1` [II-9, 3-Amino-1-(4-phenoxyphenyl)-4-(piperidin-4-yl)-1H-pyrrole-2-carboxamide], the IC50 at Recombinant Btk came to 7600 nM.

As to `C=CC(=O)N1CCC[C@@H](n2nc(-c3ccc(Cl)c(OC)c3)c(C(N)=O)c2N)C1` [Compound I-21, (R)-1-(1-Acryloylpiperidin-3-yl)-5-amino-3-(4-chloro-3-methoxyphenyl)-1H-pyrazole-4-carboxamide], at Recombinant Btk, the IC50 is 0.18 nM. As for `CC=CC(=O)N1CCCC(n2nc(-c3ccc(Oc4ccccc4)cc3)c(C(N)=O)c2N)C1` (stereo not shown) [Compound I-5, 5-Amino-1-(1-(but-2-enoyl)piperidin-3-yl)-3-(4-phenoxyphenyl)-1H-pyrazole-4-carboxamide], the values for the IC50 (on Recombinant Btk; in experiment [1]) were 2.5 nM and 42.6 nM, respectively.

Take `C=CC(=O)N1CCC[C@@H](n2nc(-c3ccc(OC(C)C)cc3)c(C(N)=O)c2N)C1` [Compound I-18, (R)-1-(1-Acryloylpiperidin-3-yl)-5-amino-3-(4-isopropoxyphenyl)-1H-pyrazole-4-carboxamide]: the IC50 on Recombinant Btk came out at 2.4 nM.
